{"source": "paper PMC10076671", "about": "“Spider venom-derived peptide JZTX-14 prevents migration and invasion of breast cancer cells via inhibition of sodium channels” (Frontiers in Pharmacology, 2023)", "key": {"[1]": {"biological_target": "T1, MDA-MB-231 sodium channels (Homo sapiens, UniProt Q14524)", "T1 construct": "host or cells: MDA-MB-231", "assay": "Whole-cell patch clamp, sodium currents in MDA-MB-231 cells", "assay_type": "cell-based", "description": "(§1) Sodium currents in experimental cells were recorded at room temperature (22°C–25°C) using an EPC-10 patch-clamp amplifier (HEKA, Germany) in a whole-cell patch-clamp configuration. Recording pipettes were made from borosilicate glass capillaries (VWR, United States) using a PC-10 puller (Narishige, Japan). The inner solution (mM): KCl 130, NaCl 15, CaCl2 0.37, MgCl2 1 EGTA 1, HEPES 10, pH 7.2, resistance was measured as 1.8 MO. The outer solution was composed of (mM): NaCl 140, KCl 3, MgCl2 1, CaCl2 1, HEPES 10, pH 7.2. To minimize voltage errors, the series resistance compensation was set to 80%. The P/4 protocol was used to subtract the linear capacitance and leakage current. Experimental data were acquired and analyzed using the pulse fit 8.0 program (HEKA, Germany). The needed concentrations of toxin dissolved in external solution were applied to the cell surface by microinjector.\nThe biological activity of synthetic JZTX-14 in MDA-MB-231 cells was recorded using the whole-cell patch-clamp method. MDA-MB-231 sodium channels are sensitive to JZTX-14. […] The inward sodium current was induced by a 50 ms depolarisation potential of −30 mV at a holding potential of −100 mV (Figure 3A). The inhibition by JZTX-14 was concentration-dependent (Figure 3B). […] Next, we determined the effects of JZTX-14 on the current-voltage (I–V) curves of sodium channels resulting from a series of currents induced by a set of depolarising potentials ranging from −100 to +60 mV when cells were held at −100 mV (Figure 3C). […] We also investigated the effect of JZTX-14 on the steady-state inactivation of sodium channels in MDA-MB-231 cells. […] shifted the inactivation curves for sodium channels by approximately 10 mV (Figure 3D)."}, "Nav1.5": {"tested_on": "Nav1.5", "assay_type": "cell-based", "conditions": "50 ms depolarisation to −30 mV, holding potential −100 mV, room temperature (22°C–25°C), mean ± SEM", "description": "as §1\nTo determine the biological activity of synthetic and natural JZTX-14 on Nav1.5, we observed their effects on HEK293T cells heterologously expressing Nav1.5 using a whole-cell voltage-clamp configuration. The current traces were induced by a 50 ms depolarisation potential of −30 mV at a holding potential of −100 mV. Currents were recorded by adding 0.1 μM and 0.5 μM of JZTX-14 to the solution."}}, "note": "Where two headings read alike, the source gives them in different places. Where a SMILES comes first, the peptide text is derived from it. Bridges are numbered along the chain shown (N, C = ends)."}
{"smiles": "CC[C@H](C)[C@H](NC(=O)[C@@H]1CSSC[C@@H]2NC(=O)[C@@H]3CCCN3C(=O)[C@@H]3CCCN3C(=O)[C@H](CCC(N)=O)NC(=O)CNC(=O)[C@@H]3CCCN3C(=O)[C@H](Cc3c[nH]cn3)NC(=O)[C@@H]3CSSC[C@H](NC(=O)[C@H](C)NC(=O)[C@H](CC(C)C)NC(=O)CNC(=O)[C@H](CO)NC(=O)[C@H](CSSC[C@H](NC(=O)CN)C(=O)N[C@@H](CCC(N)=O)C(=O)N[C@@H](CCCCN)C(=O)N[C@@H](Cc4ccccc4)C(=O)N[C@@H](Cc4ccccc4)C(=O)N[C@@H](Cc4c[nH]c5ccccc45)C(=O)N[C@@H]([C@@H](C)O)C(=O)N3)NC2=O)C(=O)N[C@@H]([C@@H](C)O)C(=O)N[C@@H](Cc2c[nH]c3ccccc23)C(=O)N2CCC[C@H]2C(=O)N[C@@H]([C@@H](C)O)C(=O)N[C@@H](CCC(=O)O)C(=O)N[C@@H]([C@@H](C)CC)C(=O)N1)C(=O)N[C@@H](CC(C)C)C(N)=O", "note": "[JZTX-14] (H-GCQKFFWTCHPGQPPCCSGLACTWPTEICIL-NH2; disulfide 2-17, 9-22, 16-29)", "values": [{"measurement": "Inhibition of inward sodium currents (in words)", "setting": "[1]; 500 nM and 1 μM, 50 ms depolarisation to −30 mV, holding potential −100 mV", "value": "inhibited the inward sodium currents"}, {"measurement": "Shift of steady-state inactivation curves of sodium channels", "setting": "[1]; 1 μM (Figure 3D), 6 cells per point, direction not given", "value": "approximately 10 mV"}, {"measurement": "Shift of activation thresholds of sodium channels", "setting": "[1]; 1 μM, in the depolarising direction, I–V curves from −100 to +60 mV, holding potential −100 mV", "value": "approximately 10 mV"}, {"measurement": "IC50", "setting": "[1]; Hill equation fit, 50 ms depolarisation to −30 mV, holding potential −100 mV, synthetic JZTX-14, 6 cells per point, read-out: IC50, inhibition of sodium current", "value": 401, "unit": "nM"}, {"measurement": "Inhibition of Nav1.5 current", "setting": "Nav1.5; 0.1 μM, listed as Synthetic JZTX-14, 0.1 µM", "value": "30.3% ± 2.5%"}, {"measurement": "Inhibition of Nav1.5 current", "setting": "Nav1.5; 0.5 μM, listed as Synthetic JZTX-14, 0.5 µM", "value": "53.4% ± 2.5%"}]}
